Assay results from patent publication US8101159B2, “In vivo methods of identifying compounds which target suppressed cancer cells” (The Board of Regents of the University of Oklahoma, priority 2005, dated 2012).

Legend:
[1] = test system: suppressed cancer cells; experiment: Library screen and dose-response, cells on normal matrix vs cells on plastic; type: cell-based; settings: FIGS. 3A, 3B, 6A-6C
Description: Screening of compounds. The National Cancer Institute Developmental Therapeutics Program (NCI DTP) diversity set of 1990 compounds1 was obtained by material transfer agreement and was diluted to a final concentration of 166.7 μM in serum-containing media and placed onto cells for 72 hours at 37° C. and 5% CO2. A marker of cell proliferation using the substrate 5-carboxyfluorescein diacetate acetoxymethyl ester (CFDA-AM) cleaved to fluorescein by non-specific cellular esterases was used. Briefly, media containing a final concentration of 5 μM CFDA-AM (Molecular Probes, Eugene, Oreg.) was added in PBS for two h at 37° C. Plates were then read by a FLUOstar Optima plate reader (BMG LABTECH, Durham, N.C.) using 385 nm excitation, 428 nm emission filter.
(§1) Dose-response relations of lead compounds. To 100 μl media on cells was added 100 μl of a 2× (666.7 μM) stock of either doxorubicin, tetrandrine or o-cresolphthalein in completed media in a single column in a 96-well plate. 1:3 dilutions were made from this highest dose by removing 66.7 μl into the next column of cells containing 133 μl media. Cells were incubated with drug for 72 hours, then the CFDA-AM assay completed as described above.
(§2) Drug screening. The percent inhibition of cell proliferation (as determined by CFDA-AM cleavage) as compared to untreated cells was calculated for each drug in the wells of plates. The ratio of percent inhibition of the same drug of cells grown on SISgel as compared to non-confluent monolayers also was calculated. All library compounds were screened twice for consistency.
(§3) Dose-response relations. Data were graphed as percent inhibition of proliferation as compared to untreated cells and from this EC50 values calculated using sigmoidal dose-response non-linear regression analysis (GraphPad Prism 4.0 software, San Diego, Calif.). Dose-response relation data were compared to one another using two-way ANOVA with Bonferroni post-test (GraphPad Prism 4.0 software, San Diego, Calif.).
SISgel (90 μl) is added to wells of a 96-well plate and allowed to gel. Cancer cells in 50 μl of nutrient (such as, for example, J82 bladder cancer cell, RT4 cancer cells, TCCSUP cancer cells, 5637 cancer cells, MDA-MB-468 breast cancer cells, or B16-F10 skin tumor (or any metastatic murine melanoma)) are added to each well and allowed to attach and grow. After 24 hours, the test compounds are added to wells at 10 μM concentration. The cells are allowed to grow in the presence of the test compound for 24 hours, at which time the number of cells (or survival or mortality) are estimated by a fluorometric method. In one embodiment, the fluorometric method is an assay performed using an esterase substrate, 5-carboxyfluorescein diacetate acetoxymethyl ester (CFDA) (available from Molecular Probes, Eugene, Oreg., USA), however, any suitable assay for measuring cell survival or mortality known by those of ordinary skill in the art may be used. Examples of fluorometers which can be used include, but are not limited to, FLUOStar Optima plate reader (BMG Biotech), FL600 fluorescent plate reader (Bio-Tek Instruments), Victor2 plate reader (Wallac), FluoroCount BF10000 fluorescent microplate reader (Packard), CytoFluor® 4000 (Applied Biosystems), Bio-Tek Synergy, BMG FLUOstar Galaxy and OPTIMA, PerkinElmer Victor™, PerkinElmer HTS 7000, TECAN SpectraFluor Plus, Thermo LabSystems Fluoroskan Ascent, and the like.
The cell number results are compared to those observed in cells grown conventionally on plastic in nearly confluent monolayers that show approximately the same growth rate as the cells on SISgel. […] In other embodiments, the ratio used may be, for example, less than two fold or greater than two fold as long as the cell number or survival on non-suppressing cell support matrix is greater than the number of cells on the suppressing cell support matrix. Preferably, each positive result is then confirmed by a full dose-response curve. […]

[2] = test system: MDA-MB-468 cells; experiment: Complete dose response, cells in SISgel vs monolayers or Matrigel; type: cell-based; settings: FIGS. 8A-8B
Description: as §1, §3
(§4) SISgel (90 μl) is added to wells of a 96-well plate and allowed to gel. […] Examples of fluorometers which can be used include, but are not limited to, FLUOStar Optima plate reader (BMG Biotech), FL600 fluorescent plate reader (Bio-Tek Instruments), Victor2 plate reader (Wallac), FluoroCount BF10000 fluorescent microplate reader (Packard), CytoFluor® 4000 (Applied Biosystems), Bio-Tek Synergy, BMG FLUOstar Galaxy and OPTIMA, PerkinElmer Victor™, PerkinElmer HTS 7000, TECAN SpectraFluor Plus, Thermo LabSystems Fluoroskan Ascent, and the like. […]

[3] = test system: B16-F10 cells; experiment: as above; type: cell-based, murine; settings: FIGS. 9A-9B
Description: as §1, §3, §4

[4] = test system: J82 metastatic bladder cancer cells; experiment: In vivo flank xenograft, GFP-tagged cells co-injected with suppressive SISgel; settings: nude mice, 35 mg/kg Monday, Wednesday and Friday from day 8
Description: Flank xenograft model. J82 cells stably expressing green fluorescent protein (GFP) were prepared as follows. pLEGFP-C1 retrovirus (Clontech, Mountain View, Calif.) was co-transfected with the pVSV-G vector (Clontech, Mountain View, Calif.) which contains a viral envelope gene into the packaging cell line GP2-293 (Clontech, Mountain View, Calif.). Supernatant from the packaging cells containing the infective virus was collected every 24 hours for 4 days. Fluorescent target cells were made by infecting J82s, a urothelial transitional cell carcinoma cell line (ATCC, Manassas, Va.), with 1 ml of fresh, virus containing, supernatant/well containing 100,000 target cells along with 8 μg/ml of polybrene (Sigma Aldrich, St. Louis, Mo.). Each application of viral supernatant was filtered through a 0.4 μM syringe filter before application to target cells. Supernatant was removed and fresh virus containing media replenished on target cells every 24 hours until 4 changes of media were completed. […]
(§5) In sterile 500 μl centrifuge tubes, placed on ice, 100 μl of cell suspension was mixed with either 100 μl ice-cold prepared SISgel or ice-cold Matrigel and mixed well. […] The area and intensity of the tumor was measured using Adobe Photoshop by first selecting the tumor area, then counting pixels above a threshold selected to eliminate background, non-tumor areas. The integrated intensity was calculated by multiplying the average intensity of detected pixels by the number of pixels detected.
(§6) In this experiment, the activities of three compounds identified by the in vitro screening method were compared against both ECM-suppressed (SISgel, right) and actively growing (Matrigel, left) J82 metastatic bladder cancer cells. […] When tumors were first visible fluorescently (8 days after implantation), 35 mg/kg Bordeaux Red, tetrabromofluorescein, or Wool Violet 2R were injected Monday, Wednesday and Friday and tumor size was measured using fluorescence microscopy. A representative time course of fluorescence imaging is shown from a single animal for each treatment group. […]

[5] = test system: J82 metastatic bladder cancer cells; experiment: In vivo flank xenograft, GFP-tagged cells co-injected with permissive Matrigel; settings: nude mice; for activity against actively growing cells in vivo (fluorescence imaging): 35 mg/kg Monday, Wednesday and Friday from day 8
Description: Flank xenograft model. J82 cells stably expressing green fluorescent protein (GFP) were prepared as follows. pLEGFP-C1 retrovirus (Clontech, Mountain View, Calif.) was co-transfected with the pVSV-G vector (Clontech, Mountain View, Calif.) which contains a viral envelope gene into the packaging cell line GP2-293 (Clontech, Mountain View, Calif.). Supernatant from the packaging cells containing the infective virus was collected every 24 hours for 4 days. Fluorescent target cells were made by infecting J82s, a urothelial transitional cell carcinoma cell line (ATCC, Manassas, Va.), with 1 ml of fresh, virus containing, supernatant/well containing 100,000 target cells along with 8 μg/ml of polybrene (Sigma Aldrich, St. Louis, Mo.). Each application of viral supernatant was filtered through a 0.4 μM syringe filter before application to target cells. Supernatant was removed and fresh virus containing media replenished on target cells every 24 hours until 4 changes of media were completed. Virus containing media was replaced with Minimum Essential Media, MEM, (Life Technologies, Carlsbad, Calif.) containing 1% nonessential amino acids, 1% L-glutamine, 1% sodium pyruvate and 10% Fetal Calf Serum, and cells were allowed to grow to 90% confluence. Stable transfects were selected through sequential sorting and enrichment of fluorescent cells using flow cytometry.
as §5, with “well. The mix was immediately injected into either the right or left flank of a 5-week old nude mouse, nu/nu-nuBR, (Charles River Laboratories, Wilmington, Mass.). Caliper measurements of tumor size were taken every week for the length of the study as were fluorescent images.” for “well.”
as §6

[6] = test system: J82 cells; experiment: Cell proliferation dose-response (CFDA-AM), cells on SISgel vs non-confluent monolayers; type: cell-based
Description: Plating of cells for screening. Three-dimensional gel cultures with Matrigel were made by layering 50 μl of ice cold Matrigel into wells of a Costar 3610 white, clear bottom 96-well plates (Corning, Corning, N.Y.) allowed to gel at 37° C. Confluent cells were trypsinized with 1 ml 0.25% trypsin −1 mM EDTA, and 30,000 were added to wells containing the gelled matrices. The cells were fed with 50 μl of their respective media containing 10% fetal calf serum. To establish non-confluent monolayers, cells were plated at a cell density of 10,000/well 24 hours prior to drug treatments.
Screening of compounds. […] Plates were then read by a FLUOstar Optima plate reader (BMG LABTECH, Durham, N.C.) using 385 nm excitation, 428 nm emission filter. […]
as §2, with “All library compounds were screened twice for consistency.” left out
Dose-response relations. Data were graphed as percent inhibition of proliferation as compared to untreated cells and from this EC50 values calculated using sigmoidal dose-response non-linear regression analysis (GraphPad Prism 4.0 software, San Diego, Calif.). […]

| Compound | sensitivity of cells on normal matrix compared with cells grown on plastic [1] | EC50 of cells grown in SISgel compared with monolayers or Matrigel [2] | EC50 of cells grown in SISgel compared with monolayers or Matrigel [3] | effect on ECM-suppressed cells in vivo (fluorescence imaging) [4] | rate of tumor growth in Matrigel treated animals compared with controls ([5]; 35 mg/kg) | activity against actively growing cells in vivo (fluorescence imaging) [5] | activity against cancer cells under suppressing conditions compared with non-suppressing cell culture (dose-response, FIG. 2) [6] |
| --- | --- | --- | --- | --- | --- | --- | --- |
| O=C1OC2(c3ccc(O)cc3Oc3cc(O)ccc32)c2c(Br)c(Br)c(Br)c(Br)c21 [3,4,5,6-tetrabromofluorescein] | several fold increased sensitivity | lower EC50 values | lower EC50 values | caused disappearance of the cells | weak inhibition of tumor growth | none of the three compounds had any activity |  |
| O=S(=O)([O-])c1ccc2c(N=Nc3cccc4ccccc34)c(O)c(S(=O)(=O)[O-])cc2c1.[Na+].[Na+] [Bordeaux Red] | several fold increased sensitivity | lower EC50 values | lower EC50 values | caused disappearance of the cells |  | none of the three compounds had any activity |  |
| CC(C)=CCC(OC(=O)C=C(C)C)C1=CC(=O)c2c(O)ccc(O)c2C1=O (stereo not drawn) [NSC140377] | several fold increased sensitivity |  |  |  |  |  |  |
| Cc1cc(C)c(NC(=O)/C=C/c2ccccc2)c(C)c1 [NSC 191384] | several fold increased sensitivity |  |  |  |  |  | more active against cancer cells grown under the suppressing conditions |
| CC1=C(N2CC2)C(=O)C(CO)=C(N2CC2)C1=O [NSC 697726] | several fold increased sensitivity |  |  |  |  |  |  |
| Wool Violet 2R | several fold increased sensitivity |  |  | caused disappearance of the cells |  | none of the three compounds had any activity |  |
